Values of other authors as cited in patent publication US12343348B2, “Methods for treating subjects with Prader-Willi syndrome or Smith-Magenis syndrome” (Essentialis, Inc., priority 2014, dated 2025).

Columns and labels:
[1] = biological target: Kir6.2/SUR1 channel (Rattus norvegicus, UniProt Q09429); settings: Dabrowski, et al., Diabetes 51 (2002)
[2] = biological target: T1, KATP channel (Homo sapiens, UniProt Q09428); settings: patients with hyperinsulinism and patients with pancreatic insulinoma
T1 construct: host or cells: patients with hyperinsulinism or pancreatic insulinoma (endogenous channel)
T1 sequence (Q09428 whole entry): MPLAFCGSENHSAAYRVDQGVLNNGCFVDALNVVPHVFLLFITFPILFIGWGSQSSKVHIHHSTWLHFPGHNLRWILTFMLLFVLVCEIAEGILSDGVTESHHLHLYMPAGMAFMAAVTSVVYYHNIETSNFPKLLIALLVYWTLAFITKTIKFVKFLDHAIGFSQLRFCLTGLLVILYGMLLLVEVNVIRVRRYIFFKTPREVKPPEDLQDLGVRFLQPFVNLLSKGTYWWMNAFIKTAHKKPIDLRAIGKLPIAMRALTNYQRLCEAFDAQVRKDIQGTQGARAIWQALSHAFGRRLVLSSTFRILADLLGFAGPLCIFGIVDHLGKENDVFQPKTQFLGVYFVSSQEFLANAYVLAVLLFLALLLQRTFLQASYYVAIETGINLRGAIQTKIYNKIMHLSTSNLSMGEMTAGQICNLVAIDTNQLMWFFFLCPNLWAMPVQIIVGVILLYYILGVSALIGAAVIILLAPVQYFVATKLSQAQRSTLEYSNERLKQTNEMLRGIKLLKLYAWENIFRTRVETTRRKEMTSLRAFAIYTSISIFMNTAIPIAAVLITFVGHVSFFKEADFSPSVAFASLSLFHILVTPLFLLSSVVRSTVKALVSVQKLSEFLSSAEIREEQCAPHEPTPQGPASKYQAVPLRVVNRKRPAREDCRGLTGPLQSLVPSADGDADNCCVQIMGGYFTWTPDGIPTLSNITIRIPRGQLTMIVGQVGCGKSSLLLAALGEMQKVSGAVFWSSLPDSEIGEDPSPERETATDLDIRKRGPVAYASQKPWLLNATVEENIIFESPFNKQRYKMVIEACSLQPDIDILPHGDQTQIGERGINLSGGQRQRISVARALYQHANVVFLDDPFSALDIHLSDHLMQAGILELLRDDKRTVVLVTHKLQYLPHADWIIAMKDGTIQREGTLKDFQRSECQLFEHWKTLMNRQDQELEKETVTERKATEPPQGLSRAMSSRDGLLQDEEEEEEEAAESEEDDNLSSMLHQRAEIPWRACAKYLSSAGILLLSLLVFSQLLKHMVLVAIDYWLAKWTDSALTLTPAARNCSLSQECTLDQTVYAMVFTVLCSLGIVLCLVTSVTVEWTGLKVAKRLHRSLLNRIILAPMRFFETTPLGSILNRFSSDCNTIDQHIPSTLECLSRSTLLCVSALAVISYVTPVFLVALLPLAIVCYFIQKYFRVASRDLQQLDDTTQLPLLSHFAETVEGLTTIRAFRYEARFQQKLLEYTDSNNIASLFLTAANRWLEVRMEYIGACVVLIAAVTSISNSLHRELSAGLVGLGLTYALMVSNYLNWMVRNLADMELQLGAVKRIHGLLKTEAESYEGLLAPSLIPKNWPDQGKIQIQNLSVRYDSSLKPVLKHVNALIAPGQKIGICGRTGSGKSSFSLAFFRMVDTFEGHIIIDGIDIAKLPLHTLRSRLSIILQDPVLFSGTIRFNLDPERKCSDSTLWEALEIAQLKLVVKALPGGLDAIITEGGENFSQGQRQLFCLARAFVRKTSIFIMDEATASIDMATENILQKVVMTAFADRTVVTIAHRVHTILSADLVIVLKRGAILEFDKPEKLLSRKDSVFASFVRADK
T1 sequence (Q14654 whole entry partner): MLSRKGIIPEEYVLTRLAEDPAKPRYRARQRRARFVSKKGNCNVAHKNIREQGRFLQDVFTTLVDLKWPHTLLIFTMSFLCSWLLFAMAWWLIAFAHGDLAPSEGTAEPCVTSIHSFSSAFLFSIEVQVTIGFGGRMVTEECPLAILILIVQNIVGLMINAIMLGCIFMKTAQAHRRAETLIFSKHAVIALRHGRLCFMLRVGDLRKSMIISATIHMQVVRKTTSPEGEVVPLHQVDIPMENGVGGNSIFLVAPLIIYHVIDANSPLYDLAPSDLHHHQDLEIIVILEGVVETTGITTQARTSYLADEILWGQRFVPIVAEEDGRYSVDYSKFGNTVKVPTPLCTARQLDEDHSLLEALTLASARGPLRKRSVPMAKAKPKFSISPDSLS

Chain of Kir6.2/SUR1 channel (Q09429 whole entry): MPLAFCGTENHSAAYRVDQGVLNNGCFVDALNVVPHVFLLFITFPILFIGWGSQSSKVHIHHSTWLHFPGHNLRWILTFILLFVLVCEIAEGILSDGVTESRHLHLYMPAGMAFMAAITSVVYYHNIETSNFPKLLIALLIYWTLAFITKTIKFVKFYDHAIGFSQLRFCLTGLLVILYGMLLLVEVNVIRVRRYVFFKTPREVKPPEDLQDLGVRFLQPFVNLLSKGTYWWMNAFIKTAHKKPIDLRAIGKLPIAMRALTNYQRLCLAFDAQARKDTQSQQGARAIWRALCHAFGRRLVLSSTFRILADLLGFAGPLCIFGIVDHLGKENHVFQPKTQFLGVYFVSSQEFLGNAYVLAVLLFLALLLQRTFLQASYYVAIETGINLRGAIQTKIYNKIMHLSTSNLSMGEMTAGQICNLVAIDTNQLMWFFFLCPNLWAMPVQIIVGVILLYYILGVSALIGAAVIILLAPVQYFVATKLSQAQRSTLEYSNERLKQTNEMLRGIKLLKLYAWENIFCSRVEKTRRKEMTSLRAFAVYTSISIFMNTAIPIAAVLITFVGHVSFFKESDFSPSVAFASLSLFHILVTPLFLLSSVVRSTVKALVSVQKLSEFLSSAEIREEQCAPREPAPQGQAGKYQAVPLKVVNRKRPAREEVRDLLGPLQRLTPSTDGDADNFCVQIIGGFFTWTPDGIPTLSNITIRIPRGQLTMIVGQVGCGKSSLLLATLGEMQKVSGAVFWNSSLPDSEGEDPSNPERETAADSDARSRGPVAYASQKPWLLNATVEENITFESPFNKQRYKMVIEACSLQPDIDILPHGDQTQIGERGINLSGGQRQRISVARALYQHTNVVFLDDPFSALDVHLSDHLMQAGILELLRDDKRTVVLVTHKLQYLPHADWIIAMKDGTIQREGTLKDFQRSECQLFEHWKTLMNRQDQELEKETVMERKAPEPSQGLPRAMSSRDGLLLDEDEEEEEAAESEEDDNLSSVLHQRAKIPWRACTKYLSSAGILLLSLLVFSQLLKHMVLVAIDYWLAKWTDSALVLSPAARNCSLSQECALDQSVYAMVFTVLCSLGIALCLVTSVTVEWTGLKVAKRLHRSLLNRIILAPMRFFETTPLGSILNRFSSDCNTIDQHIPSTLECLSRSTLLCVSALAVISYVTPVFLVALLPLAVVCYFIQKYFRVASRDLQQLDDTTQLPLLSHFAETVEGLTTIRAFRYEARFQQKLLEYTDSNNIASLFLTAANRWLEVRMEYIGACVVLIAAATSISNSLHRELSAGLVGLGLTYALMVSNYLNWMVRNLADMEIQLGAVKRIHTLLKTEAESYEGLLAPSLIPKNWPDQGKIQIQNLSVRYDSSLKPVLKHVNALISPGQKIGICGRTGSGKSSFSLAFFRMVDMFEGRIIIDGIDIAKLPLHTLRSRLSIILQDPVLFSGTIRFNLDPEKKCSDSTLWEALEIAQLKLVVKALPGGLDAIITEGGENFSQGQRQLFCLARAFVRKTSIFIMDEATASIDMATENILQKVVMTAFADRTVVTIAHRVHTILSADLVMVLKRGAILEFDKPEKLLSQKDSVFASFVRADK
Chain of Kir6.2/SUR1 channel (Q61743 whole entry partner): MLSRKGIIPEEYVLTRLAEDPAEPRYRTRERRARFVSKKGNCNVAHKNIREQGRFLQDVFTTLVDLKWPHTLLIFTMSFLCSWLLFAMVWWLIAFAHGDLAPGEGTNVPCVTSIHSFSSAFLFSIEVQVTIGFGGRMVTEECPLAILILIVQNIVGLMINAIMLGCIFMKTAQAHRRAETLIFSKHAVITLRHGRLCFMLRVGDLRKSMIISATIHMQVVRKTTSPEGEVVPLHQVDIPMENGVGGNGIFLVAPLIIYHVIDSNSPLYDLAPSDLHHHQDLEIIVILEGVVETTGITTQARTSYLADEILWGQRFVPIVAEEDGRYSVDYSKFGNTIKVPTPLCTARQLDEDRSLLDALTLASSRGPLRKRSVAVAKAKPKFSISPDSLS

KATP channel activation [2]	SMILES	KATP channel opener selectivity [1]
	COc1ccc2c(c1)S(=O)(=O)N=C(NC(C)C)N2 [3-isopropylamino-7-methoxy-4H-1,2,4,-benzothiadiazine 1,1-dioxide]	selective Kir6.2/SUR1 channel opener
effective KATP channel activator	CC(C)N=C1Nc2cc(Cl)c(Cl)cc2S(=O)(=O)N1 [BPDZ 154]	
